Measured values as given in patent publication US11945822B2, “Pyrazolo-triazine and/or pyrazolo-pxrimidine derivatives as selective inhibitor of cyclin dependent kinase” (QURIENT CO., LTD., priority 2018, dated 2024).

Experiments:
[1] = test system: MV4-11; assay: Cellular MV4-11 viability assay (CellTiter-Glo, 72 hours); assay type: cell-based; settings: Homo sapiens
Description: (§1) All cell lines were routinely tested for mycoplasma.
(§2) The effect of the CDK7 inhibitor to inhibit the growth of target cancer cells was evaluated through the 72 hours time period of viability assay. Briefly, the candidate cell line ware plated in 96 well plate at the following density of cells respectively. […] DMSO solvent without compound served as a control and final DMSO concentration less than 0.1%. After 72 hours of incubation at 37° C., 5% CO2 incubator, cells were analyzed for the viability using the CellTiter-Glo Luminescent Cell Viability Assay (Promega, Cat #G7570). All viability assays were performed in duplicate and Luminescence was read using an Envision (Perkin Elmer, USA). Data was analyzed using XLfit software.

[2] = molecular target: T1, CDK1/Cyclin B (Homo sapiens, UniProt P06493); assay: Enzymatic assay for CDK1 (FRET based LANCE Ultra kinase assay); assay type: biochemical; settings: read-out: CDK1 enzymatic activity (IC50 range)
T1 construct: purchased Invitrogen PR4768C
T1 sequence (P06493 whole entry): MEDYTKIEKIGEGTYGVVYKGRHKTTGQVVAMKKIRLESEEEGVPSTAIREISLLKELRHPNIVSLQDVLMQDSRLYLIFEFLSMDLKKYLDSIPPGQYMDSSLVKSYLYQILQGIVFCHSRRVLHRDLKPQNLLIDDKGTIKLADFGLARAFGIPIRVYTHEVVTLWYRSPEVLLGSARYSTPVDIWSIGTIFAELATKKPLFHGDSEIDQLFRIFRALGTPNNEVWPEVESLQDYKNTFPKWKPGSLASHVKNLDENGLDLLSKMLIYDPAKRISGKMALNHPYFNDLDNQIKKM
T1 sequence (P14635 whole entry partner): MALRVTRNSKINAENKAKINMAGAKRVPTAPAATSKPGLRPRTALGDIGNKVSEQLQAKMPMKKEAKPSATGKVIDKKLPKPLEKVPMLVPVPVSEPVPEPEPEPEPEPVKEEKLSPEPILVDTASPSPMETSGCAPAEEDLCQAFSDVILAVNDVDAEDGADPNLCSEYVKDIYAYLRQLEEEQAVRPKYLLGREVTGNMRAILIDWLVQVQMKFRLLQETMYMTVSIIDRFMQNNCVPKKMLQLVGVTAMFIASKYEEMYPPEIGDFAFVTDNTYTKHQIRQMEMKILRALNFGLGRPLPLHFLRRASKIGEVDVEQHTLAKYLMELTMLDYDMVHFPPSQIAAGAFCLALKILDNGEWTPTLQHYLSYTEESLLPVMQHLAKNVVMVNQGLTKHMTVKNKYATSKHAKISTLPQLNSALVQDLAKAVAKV
Summary of the method: (§3)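 TR-FRET (LANCE Ultra) kinase assay at ATP Km, ULight-MBP peptide substrate (68 nM), 8-dose 4-fold compound series in DMSO. Enzymes: […]; 60 min at 23° C., stopped with EDTA plus Eu-anti-phospho-MBP antibody, read 665/615 nm after 60 min.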

[3] = test system: HCT116; assay: Cellular HCT116 viability assay (CellTiter-Glo, 72 hours); assay type: cell-based; settings: Homo sapiens, HCT-116
Description: as §1, §2

[4] = molecular target: T2, CDK5/p25 (Homo sapiens, UniProt Q00535); assay: Enzymatic assay for CDK5 (FRET based LANCE Ultra kinase assay); assay type: biochemical; settings: read-out: CDK5 enzymatic activity (IC50 range)
T2 construct: purchased Invitrogen PR8543B
T2 sequence (Q00535 whole entry): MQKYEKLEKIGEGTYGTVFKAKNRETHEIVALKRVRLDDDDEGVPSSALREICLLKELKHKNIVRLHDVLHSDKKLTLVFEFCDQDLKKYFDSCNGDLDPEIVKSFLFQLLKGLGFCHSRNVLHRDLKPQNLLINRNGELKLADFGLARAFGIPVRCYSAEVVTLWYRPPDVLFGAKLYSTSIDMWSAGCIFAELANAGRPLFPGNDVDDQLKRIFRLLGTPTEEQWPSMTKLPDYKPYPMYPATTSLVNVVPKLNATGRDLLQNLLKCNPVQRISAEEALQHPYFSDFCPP
T2 sequence (Q15078 99-307 partner limits assumed): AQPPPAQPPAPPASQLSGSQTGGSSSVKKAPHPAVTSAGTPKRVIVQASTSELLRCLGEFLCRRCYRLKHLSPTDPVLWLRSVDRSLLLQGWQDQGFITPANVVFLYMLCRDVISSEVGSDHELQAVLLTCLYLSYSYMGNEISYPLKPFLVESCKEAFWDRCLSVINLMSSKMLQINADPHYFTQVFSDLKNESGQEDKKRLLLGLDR
Summary of the method: as §3

[5] = test system: H460; assay: Cellular H460 viability assay (CellTiter-Glo, 72 hours); assay type: cell-based; settings: Homo sapiens, NCI-H460
Summary of the method: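 Growth inhibition is assessed over a 72-hour incubation at 37 °C in 5% CO2, relative to DMSO vehicle (final concentration less than 0.1%). Luminescence from CellTiter-Glo serves as the viability signal.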

[6] = molecular target: T3, CDK2/Cyclin A (Homo sapiens, UniProt P24941); assay: Enzymatic assay for CDK2 (FRET based LANCE Ultra kinase assay); assay type: biochemical; settings: read-out: CDK2 enzymatic activity (IC50 range)
T3 construct: purchased Invitrogen PV6290
Summary of the method: as §3

[7] = molecular target: T4, CDK7/Cyclin H/MNAT1 (Homo sapiens, UniProt P50613); assay: Enzymatic assay for CDK7 (FRET based LANCE Ultra kinase assay); assay type: biochemical; settings: for IC50: read-out: CDK7 enzymatic activity (IC50 range)
T4 construct: purchased Invitrogen PR6749B
T4 sequence (P50613 whole entry): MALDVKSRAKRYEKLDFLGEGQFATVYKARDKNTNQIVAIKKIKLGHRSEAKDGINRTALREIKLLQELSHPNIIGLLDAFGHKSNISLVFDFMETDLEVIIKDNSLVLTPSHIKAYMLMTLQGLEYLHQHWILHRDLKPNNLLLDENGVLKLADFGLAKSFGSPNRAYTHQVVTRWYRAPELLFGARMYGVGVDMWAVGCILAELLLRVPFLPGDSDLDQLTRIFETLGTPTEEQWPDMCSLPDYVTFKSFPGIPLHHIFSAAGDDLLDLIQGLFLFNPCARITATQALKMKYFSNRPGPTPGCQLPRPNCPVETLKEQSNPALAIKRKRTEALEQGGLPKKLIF
T4 sequence (P51946 whole entry partner): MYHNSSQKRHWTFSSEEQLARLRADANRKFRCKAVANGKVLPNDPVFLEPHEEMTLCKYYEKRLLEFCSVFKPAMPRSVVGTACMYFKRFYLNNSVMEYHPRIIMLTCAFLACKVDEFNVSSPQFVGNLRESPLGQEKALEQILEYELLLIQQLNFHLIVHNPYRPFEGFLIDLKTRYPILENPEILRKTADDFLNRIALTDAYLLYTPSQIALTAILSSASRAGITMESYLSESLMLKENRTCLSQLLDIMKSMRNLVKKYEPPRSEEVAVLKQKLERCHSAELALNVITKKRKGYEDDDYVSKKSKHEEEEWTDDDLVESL
T4 sequence (P51948 whole entry partner): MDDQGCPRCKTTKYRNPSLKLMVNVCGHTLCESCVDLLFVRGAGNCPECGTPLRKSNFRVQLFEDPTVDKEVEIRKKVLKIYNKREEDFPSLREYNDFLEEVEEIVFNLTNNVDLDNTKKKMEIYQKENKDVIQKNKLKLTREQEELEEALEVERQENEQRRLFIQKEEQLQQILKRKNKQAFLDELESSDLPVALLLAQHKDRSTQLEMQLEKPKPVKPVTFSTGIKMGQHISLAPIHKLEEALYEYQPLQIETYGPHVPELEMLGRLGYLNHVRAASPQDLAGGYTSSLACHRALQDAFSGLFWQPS
Summary of the method: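 Inhibition was measured at Km ATP by time-resolved FRET between a Eu anti-phospho antibody and a phosphorylated ULight peptide. The enzyme was the purified CDK7/cyclin complex, and data were curve-fitted.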

SMILES | IC50 [1] [nM] | IC50 [2] [nM] | IC50 [3] [nM] | IC50 [4] [nM] | IC50 [5] [nM] | IC50 [6] [nM] | CDK1/CDK7: Selectivity of CDK7 inhibition over CDK1 inhibition [7] | CDK2/CDK7: Selectivity of CDK7 inhibition over CDK2 inhibition [7] | CDK5/CDK7: Selectivity of CDK7 inhibition over CDK5 inhibition [7] | IC50 [7] [nM]
CC(C)c1cnn2c(NC(C)c3ccccc3-n3ccc(CO)n3)nc(N3CCC(N)CC3)nc12 (racemic) [Compound 220] | < 1000 | > 1000 | < 1000 | > 1000 | < 1000 | > 1000 | A (A=greater than 200 fold) | A (A=greater than 200 fold) | A (A=greater than 200 fold) | < 100
CC(C)c1cnn2c(NCc3ccccc3-n3ccc(C(C)(C)O)n3)nc(NCC3CCNCC3O)nc12 (centres unmarked) [Compound 223] | < 1000 | > 1000 | < 1000 | > 1000 | < 1000 | > 1000 | A (A=greater than 200 fold) | B (B=less than 200 fold, but greater than 20 fold) | B (B=less than 200 fold, but greater than 20 fold) | < 100
CC(C)c1cnn2c(NCc3ccccc3-n3cc4cc(C(=O)NC5CC5)ccc4n3)nc(N3CCC(N)CC3)nc12 [Compound 161] | < 1000 | 100 to 1000 | < 1000 | 100 to 1000 | < 1000 | 100 to 1000 | A (A=greater than 200 fold) | B (B=less than 200 fold, but greater than 20 fold) | B (B=less than 200 fold, but greater than 20 fold) | < 100
CC(C)c1cnn2c(NCc3ccccc3-n3ccc(C(C)(C)O)n3)nc(N3CCC(CN)CC3)nc12 [Compound 221] | < 1000 | > 1000 | < 1000 | > 1000 | < 1000 | > 1000 | A (A=greater than 200 fold) | A (A=greater than 200 fold) | A (A=greater than 200 fold) | < 100
CC(C)c1cnn2c(NCc3ccccc3-c3ccc4ccccc4n3)nc(N3CCC(CN)CC3)nc12 [Compound 216] | < 1000 | > 1000 | < 1000 | > 1000 | < 1000 | > 1000 | A (A=greater than 200 fold) | A (A=greater than 200 fold) | A (A=greater than 200 fold) | < 100
CCC(=O)N1CCc2nn(-c3cccc(Cl)c3CNc3cc(O[C@@H]4CCCNC4)nc4c(C(C)C)cnn34)cc2C1 [Compound 211] | 1000 to 10000 | > 1000 | 1000 to 10000 | > 1000 | 1000 to 10000 | > 1000 | A (A=greater than 200 fold) | A (A=greater than 200 fold) | A (A=greater than 200 fold) | < 100
CC(C)c1cnn2c(NCc3ccccc3-n3cc(C(=O)NC4CCOCC4)cn3)nc(N3CCC(N)CC3)nc12 [Compound 155] | < 1000 | 100 to 1000 | < 1000 | < 100 | < 1000 | 100 to 1000 | A (A=greater than 200 fold) | B (B=less than 200 fold, but greater than 20 fold) | B (B=less than 200 fold, but greater than 20 fold) | < 100
CC(C)c1cnn2c(NCc3c(Cl)cccc3-n3ccc(C(=O)NC4CCOCC4)n3)nc(N3CCC(N)CC3)nc12 [Compound 201] | < 1000 | > 1000 | < 1000 | 100 to 1000 | < 1000 | > 1000 | A (A=greater than 200 fold) | A (A=greater than 200 fold) | B (B=less than 200 fold, but greater than 20 fold) | < 100
